Laboratory results from US20210196737A1, “USE OF TREZASTILBENOSIDE IN MANUFACTURE OF PRODUCT FOR TREATING AND/OR PREVENTING NON-ALCOHOLIC FATTY LIVER DISEASE” (KPC PHARMACEUTICALS, INC., priority 2019, published 2021).

Columns and labels:
[1] = tested on: non-alcoholic fatty liver disease (NAFLD) model mice; test: Levels of serum TC, TG, HDL, LDL, AST and ALT in NAFLD model mice; format: in vivo, C57BL/6 mice; conditions: x ± s, n=10
Description: (§1) After 1 week of adaptive feeding, 44 C57 mice were divided into a control group (12 mice) and a model group (32 mice) according to the random number method. The normal control group was given ordinary diet, and the model group was given high-sugar and high-fat diet. After feeding for 8 weeks, randomly select 2 animals in each of the control group and the model group. After pathological examination confirmed that the modeling was successful, the model animals were divided into groups.
(§2) The model animals were divided according to random number method into 3 groups of 10 mice each, namely model control group (equal volume of sodium chloride injection solution), Trezastilbenoside high dose group (20 mg/kg) and Trezastilbenoside low dose group (10 mg/kg). The mice in each administration group were administered intragastrically with the corresponding drug, once a day continuously for 4 weeks, while being fed with the high-sugar and high-fat feed continuously. The mice in the normal control group (equal volume of sodium chloride injection solution) were feed with the ordinary feed.
About 1 mL of blood, taken via mouse eyeballs, was placed into a 1.5 mL centrifuge tube, and then centrifuged at 3000 r/min for 10 min to obtain the supernatant. The levels of TC, TG, HDL, LDL, AST and ALT in the serum were measured with a microplate reader strictly under the operating instructions of the assay kit.

[2] = safety research mentioned in background; cited from earlier work
[3] = tested on: non-alcoholic fatty liver disease (NAFLD) model mice; test: Body weight, wet liver weight and liver index in high-sugar high-fat diet NAFLD model mice; format: in vivo, C57BL/6 mice; conditions: for Weight: high-sugar high-fat feed; for Weight / Wet liver weight: mean ± s, n=10
Description: as §1, §2
After the last administration, the mice were fasted but had access to water for 12 h, and then sacrificed after blood was taken. The body mass and liver mass of each mouse were weighed to calculate the liver index by the following formula.
liver index=(liver wet mass/body mass)×100% (wet liver mass/body mass).

[4] = tested on: non-alcoholic fatty liver disease (NAFLD) model mice; test: TC and TG content in liver tissue of NAFLD model mice; format: in vivo, C57BL/6 mice
Description: as §1, §2
About 100 mg of liver tissue weighed, was put into 900 μL absolute ethanol to make a 10% tissue homogenate under an ice bath. Then the supernatant was separated out through a centrifugation separation at 3000 r/min for 15 min, and collected into a 1.5 mL centrifuge tube for the measurement of TC and TG content in the liver tissue.

[5] = safety research mentioned in background; cited from earlier work; remark: listed apart in the source
[6] = tested on: non-alcoholic fatty liver disease (NAFLD) model mice; test: Gross observation and HE staining of liver of NAFLD model mice; format: in vivo, C57BL/6 mice
Description: as §1, §2
The fresh liver tissue was immersed and fixed in 4% formaldehyde solution overnight for 24 h, dehydrated through 75%-95%-100% ethanol gradient, embedded in paraffin, sectioned into 4 μm, and conventionally stained with hematoxylin-eosin, to observe the pathological changes of the liver tissue under an optical microscope (HE, 200×).

[7] = high dose 20 mg/kg intragastric 4 weeks
[8] = low dose 10 mg/kg intragastric 4 weeks
[9] = high dose 20 mg/kg intragastric once a day for 4 weeks
[10] = low dose 10 mg/kg intragastric once a day for 4 weeks
[11] = HE, 200x, Trezastilbenoside group

OC[C@H]1O[C@@H](Oc2cc(/C=C/c3cc(O)cc(O)c3)ccc2O)[C@H](O)[C@@H](O)[C@@H]1O [Trezastilbenoside]
ALT (U/L) [1, 7]: 78.30 ± 11.53 U/L | AST (U/L) [1, 7]: 118.92 ± 10.75 U/L | HDL [1, 7]: 0.45 ± 0.16 mmol/L | LDL [1, 7]: 0.41 ± 0.30 mmol/L | TC [1, 7]: 3.43 ± 0.17 mmol/L | TG [1, 7]: 0.99 ± 0.11 mmol/L | ALT (U/L) [1, 8]: 122.45 ± 27.37 U/L | AST (U/L) [1, 8]: 147.73 ± 52.98 U/L | HDL [1, 8]: 0.27 ± 0.67 mmol/L | LDL [1, 8]: 0.47 ± 0.13 mmol/L | TC [1, 8]: 5.53 ± 0.52 mmol/L | TG [1, 8]: 2.67 ± 0.19 mmol/L | Toxic side reactions and death in acute toxicity tests [2]: no toxic side reactions and death occurred | Obesity induced by high sugar and high fat, compared with the model group ([3]; Trezastilbenoside administration group, 4 weeks intragastric): has a tendency to reduce the obesity induced by high sugar and high fat in mice | Weight [3, 9]: 33.8 ± 0.74 g | Liver index (%) ([3]; high dose 20 mg/kg intragastric once a day for 4 weeks, liver wet mass/body mass x 100%): 0.51 ± 0.05 % | Wet liver weight [3, 9]: 1.72 ± 2.7 g | Weight [3, 10]: 35.0 ± 0.62 g | Wet liver weight [3, 10]: 1.84 ± 3.0 g | TC [4, 7]: 4.23 ± 0.87 mg/g | TG [4, 7]: 1.96 ± 0.99 mg/g | TC [4, 8]: 6.53 ± 0.59 mg/g | TG [4, 8]: 2.12 ± 0.58 mg/g | Chromosome aberrations or mutagenesis in the genetic test [5]: no chromosome aberrations or mutagenesis were found | HE observation of mouse liver: fat droplets and pathological morphology, compared with the model group [6, 11]: smaller and fewer, the pathological morphology of liver tissue was significantly improved | HE observation of mouse liver: infiltration of inflammatory cells [6, 11]: the infiltration of inflammatory cells was not obvious | Gross observation of mouse liver: colour, texture and shape ([6]; low and high dose groups (10 and 20 mg/kg)): between the normal control group and the model group, and the texture and shape tended to be normal
